This is an account of results in US20050261298A1, “Methods of treating conditions associated with an Edg-7 receptor” (priority 2002, published 2005).

Each structure is given as a SMILES string.

Test [1] relates to Adrenergic β. The test can be described thus: Radioligand binding assay, 3H Dihydroaplenolol. Further details: species or system Wistar rat. Particulars: significance criteria ≧50% of max stimulation or inhibition. The procedure: (§1) In order to test the selectivity of compounds, various enzyme assays as well as radioligand binding assays were performed using numerous non-Edg receptor targets as listed below.
(§2) A radioligand binding assay was performed using adrenergic α1 according to the method of Greengrass and Bremner 1979, Eur. J. Pharmacol. 55:323-326. A radioligand binding assay was performed using adrenergic α2 according to the method of Boyajian and Leslie, 1987, J. Pharmacol. Exp. Ther. 241:1092-1098. A radioligand binding assay was performed using adrenergic β according to the method of Feve et al., 1994, Proc. Natl. Acad. Sci. USA 91:5677-5681. A radioligand binding assay was performed using angiotensin AT2 according to the method of Whitebread et al., 1991, Biochem. Biophys. Res. Comm. 181:1365-1371. A radioligand binding assay was performed using calcium channel Type L, dihydropyridine according to the method of Ehlert et al., 1982, Life Sci. 30:2191-2202. A radioligand binding assay was performed using dopamine D2L according to the method of Bunzo et al., 1988, Nature 336:783-787. A radioligand binding assay was performed using endothelin ETA according to the method of Mihara et al., 1994, J. Pharmacol. Exp Ther. 268:1122-1127. A radioligand binding assay was performed using histamine H1 Central according to the method of Hill et al., 1978, J. Neurochem. 31:997-1004. […]

Test [2] deals with T1, Edg-6 (Homo sapiens, UniProt O95977).
T1 construct: expressed in transfected cells; host or cells: HTC rat hepatoma cells
T1 sequence (O95977 1-384): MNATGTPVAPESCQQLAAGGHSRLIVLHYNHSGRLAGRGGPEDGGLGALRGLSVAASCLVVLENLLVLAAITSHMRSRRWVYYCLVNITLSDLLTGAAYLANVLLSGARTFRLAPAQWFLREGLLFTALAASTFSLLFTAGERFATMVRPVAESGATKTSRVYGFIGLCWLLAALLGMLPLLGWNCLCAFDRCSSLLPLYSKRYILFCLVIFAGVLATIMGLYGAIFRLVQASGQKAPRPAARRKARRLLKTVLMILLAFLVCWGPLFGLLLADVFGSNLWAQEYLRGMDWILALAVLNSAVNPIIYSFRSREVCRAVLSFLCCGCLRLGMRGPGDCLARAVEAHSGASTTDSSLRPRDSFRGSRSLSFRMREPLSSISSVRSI
The test can be described thus: Calcium mobilization assay (FLIPR), inhibition of S1P-stimulated calcium increase. The class given is cell-based. Particulars: HTC cells expressing Edg-6. On the technique in general: A change in cytosolic calcium serves as a functional read-out for many receptors and channels.

Test [3] has as its system Adrenergic α2. The test can be described thus: Radioligand binding assay, 3H Rauwolscine. Further details: species or system Wistar rat. Particulars: significance criteria ≧50% of max stimulation or inhibition. As to the method:
as §1, §2

The target in test [4] is T2, Edg-3 (Homo sapiens, UniProt Q99500).
T2 construct: expressed in transfected cells; host or cells: HTC rat hepatoma cells
The test can be described thus: Calcium mobilization assay (FLIPR), inhibition of S1P-stimulated calcium increase. In kind it is cell-based. To be noted: HTC cells expressing Edg-3.

Test [5] concerns the target T3, Edg-2 (Homo sapiens, UniProt Q92633).
T3 construct: expressed in transfected cells; host or cells: HTC rat hepatoma cells
The experiment in a line: Calcium mobilization assay (FLIPR), inhibition of LPA-stimulated calcium increase. Particulars: HTC cells expressing Edg-2. The class given is cell-based.

Test [6] deals with Edg-4 (Homo sapiens, UniProt Q9HBW0). Described as above. To be noted: HTC cells expressing Edg-4. In kind it is cell-based.
Setting [7] is: concentrations as high as 20 µM.

T3 sequence (Q92633 whole entry): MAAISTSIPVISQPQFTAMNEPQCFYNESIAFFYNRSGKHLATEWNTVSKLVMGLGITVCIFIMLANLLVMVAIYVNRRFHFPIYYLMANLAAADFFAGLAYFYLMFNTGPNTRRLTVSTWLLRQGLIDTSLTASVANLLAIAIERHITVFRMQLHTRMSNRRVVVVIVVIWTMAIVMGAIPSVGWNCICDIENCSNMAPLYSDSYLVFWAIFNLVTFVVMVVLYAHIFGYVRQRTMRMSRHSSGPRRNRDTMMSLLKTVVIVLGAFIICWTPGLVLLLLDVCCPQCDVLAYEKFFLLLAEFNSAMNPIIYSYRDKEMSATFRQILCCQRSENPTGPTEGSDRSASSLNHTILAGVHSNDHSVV
Sequence of Edg-4 (Q9HBW0 1-344 limits assumed): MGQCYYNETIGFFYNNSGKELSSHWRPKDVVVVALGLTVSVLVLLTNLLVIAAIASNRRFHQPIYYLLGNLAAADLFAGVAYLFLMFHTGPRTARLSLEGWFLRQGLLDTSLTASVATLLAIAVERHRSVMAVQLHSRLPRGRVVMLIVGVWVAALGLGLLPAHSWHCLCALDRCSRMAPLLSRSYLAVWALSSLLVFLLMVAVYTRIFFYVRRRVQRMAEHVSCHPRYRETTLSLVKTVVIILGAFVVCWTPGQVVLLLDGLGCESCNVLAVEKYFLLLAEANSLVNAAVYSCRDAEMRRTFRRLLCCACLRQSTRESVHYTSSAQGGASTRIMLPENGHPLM
T2 sequence (Q99500 whole entry): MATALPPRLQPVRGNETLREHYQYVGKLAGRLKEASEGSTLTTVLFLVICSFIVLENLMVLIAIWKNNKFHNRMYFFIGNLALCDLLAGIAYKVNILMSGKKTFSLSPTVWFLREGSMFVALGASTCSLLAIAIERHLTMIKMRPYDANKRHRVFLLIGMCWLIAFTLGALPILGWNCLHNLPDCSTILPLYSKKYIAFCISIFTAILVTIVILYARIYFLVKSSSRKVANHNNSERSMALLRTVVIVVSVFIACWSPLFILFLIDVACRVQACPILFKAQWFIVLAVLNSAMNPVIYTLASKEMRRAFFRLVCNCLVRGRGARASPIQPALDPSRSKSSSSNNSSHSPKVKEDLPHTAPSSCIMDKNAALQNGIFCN

As usually defined, the IC50 is the concentration that inhibits the measured activity by half. Regarding `CCOC(=O)c1c(NC(=O)NS(=O)(=O)c2ccccc2Cl)sc2c1CCCC2` [Compound 101], the “activity in radioligand binding assay, Adrenergic Beta, non-selective” value in test [1] is on record as “no significant activity”. Also, the IC50 in test [2], in test [4], in test [5] and in test [6] was > 20 µM throughout. For the same compound, the “inhibition of S1P-stimulated calcium increases, Edg-6” value in test [2] (setting [7]) is “did not inhibit”. The “activity in radioligand binding assay, Adrenergic Alpha 2, non-selective” value in test [3] is “no significant activity”. For the same compound, in test [4] (setting [7]), the “inhibition of S1P-stimulated calcium increases, Edg-3” value is reported as “did not inhibit”. Besides, in test [5] (setting [7]), the “inhibition of LPA-stimulated calcium increases, Edg-2” value is recorded as “did not inhibit”. Further, the “inhibition of LPA-stimulated calcium increases, Edg-4” value in test [6] (setting [7]) is listed as “did not inhibit”.
